Assay results as given in US10662205B2, “Cyclic boronic acid ester derivatives and therapeutic uses thereof” (priority 2014, dated 2020).
Read-outs that look alike come from different tables or passages of the source.

Experiments:
[1] = system: KP1004 (KPC-2); assay: Aztreonam potentiation (MPC@4); format: cell-based; settings: aztreonam 4 μg/mL
[2] = system: KP1005 (CTX-M-14); assay: Aztreonam potentiation (MPC@4); format: cell-based; settings: aztreonam 4 μg/mL
[3] = Oral pharmacokinetics; format: in vivo; settings: rat, plasma, rats, n=3, read-out: Range of % Oral Bioavailability
Protocol: Several compounds were tested for their oral pharmacokinetics. Rats (n=3 per compound) were administered a single oral dose. Oral doses were administered as a bolus. Plasma (˜0.3 mL) samples were collected from each rat at designated time points up to 24 hours. Blood samples were centrifuged within 5 min of collection at 12000 g for 5 min to obtain plasma. The plasma samples were stored at −80° C. until analyzed. Data were analyzed using WinNonlin.

[4] = system: PAM1032/KPC-2; assay: Biapenem potentiation MPC64, efflux proficient strain; format: cell-based, Pseudomonas aeruginosa; set-up: unit not given here; settings: efflux proficient (MexAB-OprM overexpressed); decrease biapenem MIC 64-fold, 32 to 0.5 μg/ml
Protocol: (§1) Efflux of BLIs from Pseudomonas aeruginosa by the MexAB-OprM efflux pump was also evaluated. The plasmid expressing the gene encoding KPC-2 was introduced into two strains of P. aeruginosa, PAM1032 and PAM1154 that overexpressed or lacked MexAB-OprM, respectively. Due to expression of KPC-2 both strains became resistant to biapenem. […] Potency of BLIs to potentiate biapenem in these strains was determined. […] The ratio of MPC64 values for each BLI in PAM1032/KPC-2 (efflux proficient) and PAM1154/KPC-2 (efflux deficient) was determined to generate the Efflux Index (EI).

[5] = system: PAM1154/KPC-2; assay: Biapenem potentiation MPC64, efflux deficient strain; format: cell-based, Pseudomonas aeruginosa; set-up: unit not given here; settings: efflux deficient (lacks MexAB-OprM); decrease biapenem MIC 64-fold, 32 to 0.5 μg/ml
Protocol: as §1

[6] = molecular target: KPC-2 (Klebsiella pneumoniae, UniProt Q9F663); assay: Inhibition of nitrocefin cleavage by purified enzyme (Ki); format: biochemical; settings: nitrocefin reporter substrate; 10 min preincubation; read-out: Ki KPC-2, NCF
Sequence of KPC-2 (Q9F663 25-293, looked up, species assumed): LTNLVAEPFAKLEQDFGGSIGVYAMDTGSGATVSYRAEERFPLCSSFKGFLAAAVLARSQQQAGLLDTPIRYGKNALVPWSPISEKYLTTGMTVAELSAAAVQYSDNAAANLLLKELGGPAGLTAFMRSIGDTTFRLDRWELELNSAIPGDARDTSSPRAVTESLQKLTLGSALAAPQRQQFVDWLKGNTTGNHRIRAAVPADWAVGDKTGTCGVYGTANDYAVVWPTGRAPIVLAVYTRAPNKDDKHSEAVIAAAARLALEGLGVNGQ
Protocol: (§2) Ki values of inhibition of purified class A, C and D enzymes were determined spectrophotometrically using nitrocefin as reporter substrate. Purified enzymes were mixed with various concentrations of inhibitors in reaction buffer and incubated for 10 min at room temperature. Nitrocefin was added and substrate cleavage profiles were recorded at 490 nm every 10 sec for 10 min. These experiments confirmed that the described compounds are inhibitors with a broad-spectrum of activity towards various β-lactamases.

[7] = molecular target: OXA-48 (Klebsiella pneumoniae, UniProt Q6XEC0); assay: as above; format: biochemical; settings: nitrocefin reporter substrate; 10 min preincubation; read-out: Ki OXA-48, NCF
Sequence of OXA-48 (Q6XEC0 23-265, looked up, species assumed): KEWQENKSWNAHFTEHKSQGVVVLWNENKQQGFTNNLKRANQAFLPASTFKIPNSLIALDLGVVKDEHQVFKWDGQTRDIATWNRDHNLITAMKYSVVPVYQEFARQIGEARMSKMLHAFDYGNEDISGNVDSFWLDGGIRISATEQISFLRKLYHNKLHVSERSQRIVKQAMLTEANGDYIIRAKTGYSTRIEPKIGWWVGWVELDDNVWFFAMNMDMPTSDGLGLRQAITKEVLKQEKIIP
Protocol: as §2

[8] = molecular target: CMY-2 (Klebsiella pneumoniae, UniProt Q48434); assay: as above; format: biochemical; settings: nitrocefin reporter substrate; 10 min preincubation; read-out: Ki CMY-2, NCF
Sequence of CMY-2 (Q48434 21-381, species assumed): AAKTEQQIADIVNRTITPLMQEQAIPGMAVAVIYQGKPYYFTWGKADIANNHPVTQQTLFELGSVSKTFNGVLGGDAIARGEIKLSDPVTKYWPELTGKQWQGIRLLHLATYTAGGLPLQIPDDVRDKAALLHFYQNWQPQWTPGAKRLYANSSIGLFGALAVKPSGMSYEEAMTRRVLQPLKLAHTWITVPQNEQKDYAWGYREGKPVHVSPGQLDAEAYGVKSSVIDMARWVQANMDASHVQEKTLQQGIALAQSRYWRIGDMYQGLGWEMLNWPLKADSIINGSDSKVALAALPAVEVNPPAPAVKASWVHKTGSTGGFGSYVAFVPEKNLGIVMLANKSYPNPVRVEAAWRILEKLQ
Protocol: as §2

[9] = system: KP1005 (CTX-M-14); assay: Tigemonam potentiation (MPC@4); format: cell-based; settings: tigemonam 4 μg/mL
[10] = system: KP1086 (OXA-48); assay: Biapenem potentiation (MPC@1); settings: biapenem 1 μg/mL
[11] = system: ECL1002; assay: Tigemonam potentiation (MPC@4); format: cell-based; settings: tigemonam 4 μg/mL
[12] = system: KP1010 (SHV-12); assay: Aztreonam potentiation (MPC@4); format: cell-based; settings: aztreonam 4 μg/mL
[13] = system: KP1009 (CTX-M-15); assay: Aztreonam potentiation (MPC@4); format: cell-based; settings: aztreonam 4 μg/mL
[14] = system: KP1004 (KPC-2); assay: Biapenem potentiation (MPC@1); settings: biapenem 1 μg/mL
[15] = system: EC1010 (CMY-6); assay: Tigemonam potentiation (MPC@4); format: cell-based; settings: tigemonam 4 μg/mL; EC1010, CMY-6
[16] = system: ec308 (SHV-5); assay: Aztreonam potentiation (MPC@4); format: cell-based; settings: aztreonam 4 μg/mL
[17] = system: ec302 (TEM-10); assay: Tigemonam potentiation (MPC@4); format: cell-based; settings: tigemonam 4 μg/mL
[18] = molecular target: SHV-12 (Klebsiella pneumoniae, UniProt P0AD64, E235K/G234S/L31Q); assay: Inhibition of nitrocefin cleavage by purified enzyme (Ki); format: biochemical
Sequence of SHV-12 (P0AD64 22-286 L31Q/G234S/E235K): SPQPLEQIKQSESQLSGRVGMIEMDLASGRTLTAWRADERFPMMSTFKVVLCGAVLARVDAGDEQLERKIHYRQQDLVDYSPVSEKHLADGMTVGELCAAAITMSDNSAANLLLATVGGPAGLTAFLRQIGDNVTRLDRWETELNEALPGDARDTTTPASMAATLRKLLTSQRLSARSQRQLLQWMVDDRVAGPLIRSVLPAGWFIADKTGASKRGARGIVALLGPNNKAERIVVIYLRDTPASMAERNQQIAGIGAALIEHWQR
Protocol: (§3) Ki values of inhibition of purified class A, C and D enzymes were determined spectrophotometrically using nitrocefin as reporter substrate. Purified enzymes were mixed with various concentrations of inhibitors in reaction buffer and incubated for 10 min at room temperature. Nitrocefin was added and substrate cleavage profiles were recorded at 490 nm every 10 sec for 10 min.

[19] = molecular target: CTX-M-14 (Escherichia coli, UniProt Q9L5C7); assay: as above; format: biochemical; settings: nitrocefin reporter substrate; 10 min preincubation; read-out: Ki CTX-M-14, NCF
Sequence of CTX-M-14 (Q9L5C7 29-291): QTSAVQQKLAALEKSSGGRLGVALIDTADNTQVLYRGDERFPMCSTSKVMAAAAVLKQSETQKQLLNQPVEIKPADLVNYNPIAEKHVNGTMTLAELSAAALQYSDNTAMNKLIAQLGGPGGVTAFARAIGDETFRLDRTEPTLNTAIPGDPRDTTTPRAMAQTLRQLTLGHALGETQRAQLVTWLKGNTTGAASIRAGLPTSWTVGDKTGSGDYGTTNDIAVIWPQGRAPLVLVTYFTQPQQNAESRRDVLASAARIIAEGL
Protocol: as §3

[20] = molecular target: P99 (Enterobacter cloacae, UniProt P05364); assay: biochemical; settings: nitrocefin reporter substrate; 10 min preincubation; read-out: Ki P99, NCF
Sequence of P99 (P05364 21-381): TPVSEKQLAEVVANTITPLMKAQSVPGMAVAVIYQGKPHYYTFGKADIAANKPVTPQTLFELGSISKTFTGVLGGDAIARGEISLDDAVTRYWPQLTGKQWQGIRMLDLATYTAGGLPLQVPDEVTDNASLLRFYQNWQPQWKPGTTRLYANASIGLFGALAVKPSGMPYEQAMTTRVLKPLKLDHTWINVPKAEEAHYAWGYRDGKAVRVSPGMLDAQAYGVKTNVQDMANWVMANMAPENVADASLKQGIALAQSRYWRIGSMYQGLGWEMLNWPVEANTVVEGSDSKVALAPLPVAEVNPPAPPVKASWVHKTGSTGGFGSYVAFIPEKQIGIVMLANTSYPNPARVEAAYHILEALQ
Protocol: as §3

[21] = system: ec308 (SHV-5); assay: Tigemonam potentiation (MPC@4); format: cell-based; settings: tigemonam 4 μg/mL
[22] = system: KP1010 (SHV-12); assay: Tigemonam potentiation (MPC@4); format: cell-based
[23] = system: EC1010 (CMY-6); assay: Aztreonam potentiation (MPC@4); format: cell-based; settings: aztreonam 4 μg/mL
[24] = system: ECL1002; assay: Aztreonam potentiation (MPC@4); format: cell-based; settings: aztreonam 4 μg/mL
[25] = system: ec302 (TEM-10); assay: Aztreonam potentiation (MPC@4); format: cell-based; settings: aztreonam 4 μg/mL
[26] = system: KP1009 (CTX-M-15); assay: Tigemonam potentiation (MPC@4); format: cell-based

Row | Structure (SMILES) | MPC@4 aztreonam potentiation [1] | MPC@4 aztreonam potentiation [2] | PAM1032/KPC-2 Biapenem MPC64 [4] | PAM1154/KPC-2 Biapenem MPC64 [5] | Ki [6] [nM] | Ki [7] [nM] | Ki [8] [nM] | MPC@4 tigemonam potentiation [9] | MPC@1 biapenem potentiation [10] | MPC@4 tigemonam potentiation [11] | MPC@4 aztreonam potentiation [12] | MPC@4 aztreonam potentiation [13] | MPC@1 biapenem potentiation [14] | MPC@4 tigemonam potentiation [15] | MPC@4 aztreonam potentiation [16] | MPC@4 tigemonam potentiation [17] | Ki [18] [nM] | Ki [19] [nM] | Ki [20] [nM] | MPC@4 tigemonam potentiation [21] | other results
1 | Cn1nnnc1SCC(=O)N[C@H]1CC=C[C@@H]2CC(=O)OB1O2 [Compound 4, 2-(1-METHYL-1H-TETRAZOL-5-YLTHIO)-N-((2R,6S)-8-OXO-9,10-DIOXA-1-BORABICYCLO[4.3.1]DEC-4-EN-2-YL)ACETAMIDE] | X (X = MPC@4 ≤ 5 μg/mL) | X (X = MPC@4 ≤ 5 μg/mL) | >80 | 10 | 100 to 1000 | < 100 | < 100 | Y (Y = 5 μg/mL < MPC@4 ≤ 20 μg/mL) | Z (Z = MPC@1 > 20 μg/mL) | X (X = MPC@4 ≤ 5 μg/mL) | X (X = MPC@4 ≤ 5 μg/mL) | X (X = MPC@4 ≤ 5 μg/mL) | X (X = MPC@1 ≤ 5 μg/mL) | X (X = MPC@4 ≤ 5 μg/mL) | X (X = MPC@4 ≤ 5 μg/mL) | Y (Y = 5 μg/mL < MPC@4 ≤ 20 μg/mL) | < 100 | < 100 | < 100 | X (X = MPC@4 ≤ 5 μg/mL) | bioavailability ([3]; single oral dose 50 mg/kg): 3.2 to 4.6%; MPC@4 tigemonam potentiation [22]: X (key: X = MPC@4 ≤ 5 μg/mL; Y = 5 μg/mL < MPC@4 ≤ 20 μg/mL; Z = MPC@4 > 20 μg/mL); MPC@4 aztreonam potentiation [23]: X (X = MPC@4 ≤ 5 μg/mL); MPC@4 aztreonam potentiation [24]: X (X = MPC@4 ≤ 5 μg/mL); MPC@4 aztreonam potentiation [25]: X (X = MPC@4 ≤ 5 μg/mL); MPC@4 tigemonam potentiation [26]: X (key: X = MPC@4 ≤ 5 μg/mL; Y = 5 μg/mL < MPC@4 ≤ 20 μg/mL; Z = MPC@4 > 20 μg/mL)
2 | CSCC(=O)N[C@H]1CC=C[C@@H]2CC(=O)OB1O2 [Compound 1, 2-(METHYLTHIO)-N-((2R,6S)-8-OXO-9,10-DIOXA-1-BORABICYCLO[4.3.1]DEC-4-EN-2-YL)ACETAMIDE] | X (X = MPC@4 ≤ 5 μg/mL) | X (X = MPC@4 ≤ 5 μg/mL) | 80 | 5 | 100 to 1000 | < 100 | < 100 | X (X = MPC@4 ≤ 5 μg/mL) | Z (Z = MPC@1 > 20 μg/mL) | X (X = MPC@4 ≤ 5 μg/mL) | X (X = MPC@4 ≤ 5 μg/mL) | X (X = MPC@4 ≤ 5 μg/mL) | X (X = MPC@1 ≤ 5 μg/mL) | X (X = MPC@4 ≤ 5 μg/mL) | X (X = MPC@4 ≤ 5 μg/mL) | Y (Y = 5 μg/mL < MPC@4 ≤ 20 μg/mL) | < 100 | < 100 | < 100 | X (X = MPC@4 ≤ 5 μg/mL) | bioavailability ([3]; single oral dose 30 mg/kg): 44 to 61%; bioavailability ([3]; single oral dose 100 mg/kg): 63 to 74%; bioavailability ([3]; single oral dose 300 mg/kg): 61 to 77%; MPC@4 tigemonam potentiation [22]: X (key: X = MPC@4 ≤ 5 μg/mL; Y = 5 μg/mL < MPC@4 ≤ 20 μg/mL; Z = MPC@4 > 20 μg/mL); MPC@4 aztreonam potentiation [23]: X (X = MPC@4 ≤ 5 μg/mL); MPC@4 aztreonam potentiation [24]: X (X = MPC@4 ≤ 5 μg/mL); MPC@4 aztreonam potentiation [25]: X (X = MPC@4 ≤ 5 μg/mL); MPC@4 tigemonam potentiation [26]: X (key: X = MPC@4 ≤ 5 μg/mL; Y = 5 μg/mL < MPC@4 ≤ 20 μg/mL; Z = MPC@4 > 20 μg/mL)
3 | Nc1nnc(SCC(=O)N[C@H]2CC=C[C@@H]3CC(=O)OB2O3)s1 [Compound 6, 2-(5-AMINO-1,3,4-THIADIAZOL-2-YLTHIO)-N-((2R,6S)-8-OXO-9,10-DIOXA-1-BORABICYCLO[4.3.1]DEC-4-EN-2-YL)ACETAMIDE] | X (X = MPC@4 ≤ 5 μg/mL) | X (X = MPC@4 ≤ 5 μg/mL) | 40 | 5 | 100 to 1000 | 100 to 1000 | < 100 | X (X = MPC@4 ≤ 5 μg/mL) | Z (Z = MPC@1 > 20 μg/mL) | X (X = MPC@4 ≤ 5 μg/mL) | X (X = MPC@4 ≤ 5 μg/mL) | X (X = MPC@4 ≤ 5 μg/mL) | X (X = MPC@1 ≤ 5 μg/mL) | X (X = MPC@4 ≤ 5 μg/mL) | X (X = MPC@4 ≤ 5 μg/mL) | Y (Y = 5 μg/mL < MPC@4 ≤ 20 μg/mL) | < 100 | < 100 | < 100 | X (X = MPC@4 ≤ 5 μg/mL) | bioavailability ([3]; single oral dose 30 mg/kg): 2 to 4%; MPC@4 tigemonam potentiation [22]: X (key: X = MPC@4 ≤ 5 μg/mL; Y = 5 μg/mL < MPC@4 ≤ 20 μg/mL; Z = MPC@4 > 20 μg/mL); MPC@4 aztreonam potentiation [23]: X (X = MPC@4 ≤ 5 μg/mL); MPC@4 aztreonam potentiation [24]: X (X = MPC@4 ≤ 5 μg/mL); MPC@4 aztreonam potentiation [25]: X (X = MPC@4 ≤ 5 μg/mL); MPC@4 tigemonam potentiation [26]: X (key: X = MPC@4 ≤ 5 μg/mL; Y = 5 μg/mL < MPC@4 ≤ 20 μg/mL; Z = MPC@4 > 20 μg/mL)
